The NIST ThermoML archive (doi:10.1016/j.jct.2016.07.005)

Experiment: xn = mol fraction of the nth substance listed
Conditions: 100 kPa, Liquid; for viscosity: Concentric cylinders viscometry; for mass density: Vibrating tube method

CN1CCC[C@H]1c1cccnc1 [(-)-3-(N-methylpyrrolidino)pyridine] + CCC(C)O
Conditions	mass density [kg/m3]	viscosity [mPa·s]
293.15 K, x1 = 0.1	841.874	3.496
293.15 K, x1 = 0.2036	873.003	3.46
293.15 K, x1 = 0.3	898.284	3.593
293.15 K, x1 = 0.4	921.306	3.845
293.15 K, x1 = 0.5	941.501	4.157
293.15 K, x1 = 0.6	959.218	4.476
293.15 K, x1 = 0.6956	974.099	4.734
293.15 K, x1 = 0.8	988.293	4.907
293.15 K, x1 = 0.9	1000.07	4.909
293.15 K, x1 = 1	1010.23	4.694
298.15 K, x1 = 0.1	837.728	2.96
298.15 K, x1 = 0.2036	868.857	2.981
298.15 K, x1 = 0.3	894.137	3.11
298.15 K, x1 = 0.4	917.159	3.319
298.15 K, x1 = 0.5	937.354	3.566
298.15 K, x1 = 0.6	955.075	3.813
298.15 K, x1 = 0.6956	969.963	4.015
298.15 K, x1 = 0.8	984.171	4.158
298.15 K, x1 = 0.9	995.971	4.179
298.15 K, x1 = 1	1006.16	4.048
303.15 K, x1 = 0.1	833.532	2.521
303.15 K, x1 = 0.2036	864.676	2.579
303.15 K, x1 = 0.3	889.965	2.704
303.15 K, x1 = 0.4	912.993	2.881
303.15 K, x1 = 0.5	933.194	3.08
303.15 K, x1 = 0.6	950.921	3.277
303.15 K, x1 = 0.6956	965.82	3.439
303.15 K, x1 = 0.8	980.047	3.558
303.15 K, x1 = 0.9	991.873	3.591
303.15 K, x1 = 1	1002.1	3.518
308.15 K, x1 = 0.1	829.273	2.162
308.15 K, x1 = 0.2036	860.452	2.244
308.15 K, x1 = 0.3	885.762	2.367
308.15 K, x1 = 0.4	908.808	2.523
308.15 K, x1 = 0.5	929.021	2.691
308.15 K, x1 = 0.6	946.761	2.853
308.15 K, x1 = 0.6956	961.675	2.987
308.15 K, x1 = 0.8	975.925	3.09
308.15 K, x1 = 0.9	987.783	3.128
308.15 K, x1 = 1	998.055	3.088
313.15 K, x1 = 0.1	824.949	1.875
313.15 K, x1 = 0.2036	856.182	1.975
313.15 K, x1 = 0.3	881.53	2.094
313.15 K, x1 = 0.4	904.598	2.232
313.15 K, x1 = 0.5	924.831	2.373
313.15 K, x1 = 0.6	942.588	2.508
313.15 K, x1 = 0.6956	957.521	2.62
313.15 K, x1 = 0.8	971.798	2.713
313.15 K, x1 = 0.9	983.692	2.761
313.15 K, x1 = 1	994.014	2.758
318.15 K, x1 = 0.1	820.559	1.627
318.15 K, x1 = 0.2036	851.865	1.734
318.15 K, x1 = 0.3	877.259	1.848
318.15 K, x1 = 0.4	900.359	1.974
318.15 K, x1 = 0.5	920.616	2.099
318.15 K, x1 = 0.6	938.394	2.214
318.15 K, x1 = 0.6956	953.35	2.308
318.15 K, x1 = 0.8	967.662	2.383
318.15 K, x1 = 0.9	979.601	2.419
318.15 K, x1 = 1	989.984	2.411
323.15 K, x1 = 0.1	816.09	1.434
323.15 K, x1 = 0.2036	847.491	1.55
323.15 K, x1 = 0.3	872.943	1.662
323.15 K, x1 = 0.4	896.089	1.778
323.15 K, x1 = 0.5	916.374	1.888
323.15 K, x1 = 0.6	934.178	1.989
323.15 K, x1 = 0.6956	949.16	2.071
323.15 K, x1 = 0.8	963.511	2.141
323.15 K, x1 = 0.9	975.504	2.183
323.15 K, x1 = 1	985.962	2.195

CN1CCC[C@H]1c1cccnc1 [(-)-3-(N-methylpyrrolidino)pyridine] + CCCCO
Conditions	mass density [kg/m3]	viscosity [mPa·s]
293.15 K, x1 = 0.1	845.043	3.049
293.15 K, x1 = 0.196	874.098	3.209
293.15 K, x1 = 0.3	901.216	3.408
293.15 K, x1 = 0.3931	922.268	3.601
293.15 K, x1 = 0.5	943.285	3.829
293.15 K, x1 = 0.593	960.358	4.027
293.15 K, x1 = 0.7	975.308	4.242
293.15 K, x1 = 0.7931	987.593	4.412
293.15 K, x1 = 0.9	1000.01	4.578
293.15 K, x1 = 1	1010.23	4.694
298.15 K, x1 = 0.1	841.123	2.692
298.15 K, x1 = 0.196	870.112	2.833
298.15 K, x1 = 0.3	897.182	2.999
298.15 K, x1 = 0.3931	918.206	3.155
298.15 K, x1 = 0.5	939.205	3.337
298.15 K, x1 = 0.593	956.271	3.494
298.15 K, x1 = 0.7	971.222	3.666
298.15 K, x1 = 0.7931	983.509	3.803
298.15 K, x1 = 0.9	995.934	3.942
298.15 K, x1 = 1	1006.16	4.048
303.15 K, x1 = 0.1	837.185	2.374
303.15 K, x1 = 0.196	866.114	2.498
303.15 K, x1 = 0.3	893.14	2.642
303.15 K, x1 = 0.3931	914.139	2.776
303.15 K, x1 = 0.5	935.124	2.931
303.15 K, x1 = 0.593	952.186	3.062
303.15 K, x1 = 0.7	967.138	3.205
303.15 K, x1 = 0.7931	979.432	3.319
303.15 K, x1 = 0.9	991.866	3.433
303.15 K, x1 = 1	1002.1	3.518
308.15 K, x1 = 0.1	833.229	2.105
308.15 K, x1 = 0.196	862.102	2.219
308.15 K, x1 = 0.3	889.089	2.346
308.15 K, x1 = 0.3931	910.068	2.461
308.15 K, x1 = 0.5	931.041	2.592
308.15 K, x1 = 0.593	948.102	2.702
308.15 K, x1 = 0.7	963.059	2.821
308.15 K, x1 = 0.7931	975.36	2.917
308.15 K, x1 = 0.9	987.806	3.013
308.15 K, x1 = 1	998.055	3.088
313.15 K, x1 = 0.1	829.249	1.885
313.15 K, x1 = 0.196	858.073	1.99
313.15 K, x1 = 0.3	885.026	2.103
313.15 K, x1 = 0.3931	905.989	2.203
313.15 K, x1 = 0.5	926.955	2.316
313.15 K, x1 = 0.593	944.017	2.41
313.15 K, x1 = 0.7	958.981	2.514
313.15 K, x1 = 0.7931	971.292	2.598
313.15 K, x1 = 0.9	983.751	2.686
313.15 K, x1 = 1	994.014	2.758
318.15 K, x1 = 0.1	825.24	1.683
318.15 K, x1 = 0.196	854.022	1.777
318.15 K, x1 = 0.3	880.948	1.88
318.15 K, x1 = 0.3931	901.899	1.97
318.15 K, x1 = 0.5	922.862	2.07
318.15 K, x1 = 0.593	939.982	2.152
318.15 K, x1 = 0.7	954.903	2.239
318.15 K, x1 = 0.7931	967.226	2.304
318.15 K, x1 = 0.9	979.704	2.367
318.15 K, x1 = 1	989.984	2.411
323.15 K, x1 = 0.1	821.198	1.495
323.15 K, x1 = 0.196	849.946	1.603
323.15 K, x1 = 0.3	876.851	1.708
323.15 K, x1 = 0.3931	897.795	1.793
323.15 K, x1 = 0.5	918.759	1.882
323.15 K, x1 = 0.593	935.834	1.952
323.15 K, x1 = 0.7	950.822	2.025
323.15 K, x1 = 0.7931	963.162	2.083
323.15 K, x1 = 0.9	975.66	2.143
323.15 K, x1 = 1	985.962	2.195
